Data published in patent publication US9868737B2, “Pyridino[1,2-A]pyrimidone analogue used as MTOR/P13K inhibitor” (CISEN PHARMACEUTICAL CO., LTD., priority 2014, dated 2018).
Read-outs that look alike come from different tables or passages of the source.

Assays:
mTOR kinase = molecular target: T1, mTOR kinase (Homo sapiens, UniProt P42345); experiment: mTOR kinase assay; assay type: biochemical; conditions: in vitro enzyme activity assay; ATP 100 μM; read-out: mTOR enzyme activity_IC50
T1 construct: made in house
Protocol: 2. Experimental Procedures and Methods of the mTOR Kinase Assay
The objective was to evaluate the inhibitory effect of the subject samples on the mTOR kinase activity at molecular level.
(§1) PerkinElmer Envision 2104 Multilabel Reader.
The mTOR Kinase Assay (384 wells) was purchased from PerkinElmer company; the mTOR kinase was made in our lab.
Each solution was prepared according to the instructions provided in the mTOR Kinase Assay. The kinase reaction was carried out in white 384-well plates (Proxiplate-384 plus). 2.5 μl of DMSO (the concentration was consistent with the highest concentration of DMSO for the test compounds) was added to each of the two control wells with and without enzyme, and then 2.5 μl of a series of different concentrations of the test compounds was added to each test well. ULight-4E-BP1 (Thr37/46) PeptideATP mix (the final concentration of ATP was 100 μM) and 5 μl of mTOR kinase were added to the control well containing enzyme as well as the test wells, and fully mixed. The plate was sealed with Parafilm and incubated for 2 h. Then 5 μl of stop solution was added and incubated for 5 minutes. Afterwards, 5 μl of Detection Mix (Eu-anti-phospho-4E-BP1 (Thr37/46) Antibody, the final concentration was 2 nM) was added and incubated for 1 h, and then the mixture was detected.
(§2) The IC50 value was calculated through the GraphPad software after plotting the relative inhibitory rate versus concentration.

MCF-7 cells = experiment: In vitro test of cell activity (MCF-7 cells, insulin stimulation, ELISA-One fluorescence); assay type: cell-based; conditions: Homo sapiens, MCF7, MCF-7 cells; for inhibition at 0.25 µM: conc. 0.25 μM; for inhibition at 1 µM: conc. 1 μM; for inhibition at 0.5 µM: conc. 0.5 μM
How it was run: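 MCF-7 cells, seeded at 2.5×10^4/well in 10% FBS medium, were given compound in serum-free medium for 2 h at one concentration (screen) or a series (IC50). Insulin stimulation followed at […] final for 30 min; lysates assayed by ELISA-One sandwich immunoassay with fluorescence read-out.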

PI3K (p110α) kinase = molecular target: T2, PI3K (p110α) kinase (Homo sapiens, UniProt P42336); experiment: PI3K (p110α) kinase assay (PI3K HTRF Assay); assay type: biochemical; conditions: in vitro enzyme activity assay, 10 μM PIP2, read-out: PI3K (p110α) enzyme activity_IC50
T2 construct: made in house
Description: Conclusion: The compounds of the present invention have significant inhibitory effect on mTOR/PI3K. Example In Vitro Enzyme Activity Assay 1. The experimental procedures and methods of PI3K (p110α) kinase assay: 1) Experimental Objective
The objective was to evaluate the inhibitory effect of the subject samples on PI3K (p110α) kinase activity at molecular level.
as §1
PI 3-Kinase HTRF Assay (384 wells) was purchased from Upstate (Millipore) company: PI3K (p110α) kinase was made in our lab.
c) Experimental procedures
Each solution was prepared according to the instructions provided in the Kinase PI 3-Kinase HTRF Assay. The kinase reaction was carried out in white 384-well plates (Proxiplate-384 plus), 0.5 μl of DMSO (the concentration was consistent with the highest concentration of DMSO for the test compounds) was added to each of the two control wells with and without enzyme, and then 0.5 μl of a series of different concentrations of the test compounds was added to each well to be tested. The kinase reaction liquid (10 μM substrate PIP2, 0.5 ng PI3K (p110α)) was added to the control well containing enzyme and the test wells, while only working reaction liquid (10 μM substrate PIP2) was added to the control well without enzyme, and finally, 5 μM ATP working reaction liquid was added to activate the reaction. After the reaction was carried out at room temperature for 30 min, the stop solution was added to each well to terminate the kinase reaction. After the mixture was fully mixed, the detection liquid was added to each well and fully mixed. The plate was sealed with Parafilm and placed in the dark. After incubated overnight, the mixture was detected.
as §2

T2 sequence (P42336 whole entry): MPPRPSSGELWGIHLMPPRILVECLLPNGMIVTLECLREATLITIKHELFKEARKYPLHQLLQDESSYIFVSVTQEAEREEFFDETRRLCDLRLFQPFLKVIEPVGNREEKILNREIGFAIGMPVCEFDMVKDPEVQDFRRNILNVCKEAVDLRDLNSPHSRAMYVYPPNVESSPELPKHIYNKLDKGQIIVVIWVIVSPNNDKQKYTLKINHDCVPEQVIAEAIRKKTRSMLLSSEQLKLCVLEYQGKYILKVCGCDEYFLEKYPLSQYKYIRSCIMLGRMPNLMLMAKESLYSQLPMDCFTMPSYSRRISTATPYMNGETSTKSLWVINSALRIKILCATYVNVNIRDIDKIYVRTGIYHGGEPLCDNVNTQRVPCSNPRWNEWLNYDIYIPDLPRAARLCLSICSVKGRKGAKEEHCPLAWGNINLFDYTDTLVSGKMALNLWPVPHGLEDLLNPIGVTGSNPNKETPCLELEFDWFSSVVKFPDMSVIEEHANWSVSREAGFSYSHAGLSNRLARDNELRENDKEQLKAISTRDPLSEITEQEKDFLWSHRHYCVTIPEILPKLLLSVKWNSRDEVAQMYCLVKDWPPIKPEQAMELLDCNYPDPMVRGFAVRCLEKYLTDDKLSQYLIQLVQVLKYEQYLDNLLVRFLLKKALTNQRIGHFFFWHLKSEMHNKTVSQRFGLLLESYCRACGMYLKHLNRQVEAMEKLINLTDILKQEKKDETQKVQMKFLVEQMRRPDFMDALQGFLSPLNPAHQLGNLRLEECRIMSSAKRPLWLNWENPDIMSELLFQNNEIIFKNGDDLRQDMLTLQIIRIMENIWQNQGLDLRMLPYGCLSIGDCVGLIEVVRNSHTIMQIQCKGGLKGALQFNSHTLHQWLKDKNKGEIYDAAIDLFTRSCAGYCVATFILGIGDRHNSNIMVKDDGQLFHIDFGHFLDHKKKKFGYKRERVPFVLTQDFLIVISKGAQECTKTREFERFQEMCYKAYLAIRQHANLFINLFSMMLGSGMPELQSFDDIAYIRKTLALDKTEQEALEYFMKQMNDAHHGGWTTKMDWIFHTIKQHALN

| IC50 (mTOR kinase) | IC50 (MCF-7 cells; read-out: IC50 p-AKT) | IC50 (MCF-7 cells; read-out: IC50 p-p70S6K) | IC50 (PI3K (p110α) kinase) | SMILES | inhibition at 0.25 µM (MCF-7 cells; read-out: % inhibition AKT) | inhibition at 0.25 µM (MCF-7 cells; read-out: % inhibition p70s6k) | inhibition at 1 µM (MCF-7 cells; read-out: % inhibition AKT) | inhibition at 1 µM (MCF-7 cells; read-out: % inhibition p70s6k) | inhibition at 0.5 µM (MCF-7 cells; read-out: % inhibition AKT) | inhibition at 0.5 µM (MCF-7 cells; read-out: % inhibition p70s6k) |
| --- | --- | --- | --- | --- | --- | --- | --- | --- | --- | --- |
| 50 to 100 nM | ≤ 50 nM | ≤ 50 nM | ≤ 1 nM | CCOc1cnc2ccc(-c3cnc(OC)c(NS(=O)(=O)c4ccc(Cl)s4)c3)cn2c1=O [compound 174] | 92.5% | 78.4% | – | – | – | – |
| 1 to 10 nM | ≤ 50 nM | ≤ 50 nM | ≤ 1 nM | COc1ncc(-c2ccc3ncc(Cl)c(=O)n3c2)cc1NS(=O)(=O)c1sc(C)nc1C [compound 153] | 91.6% | 83.5% | – | – | – | – |
| 1 to 10 nM | ≤ 50 nM | 100 to 250 nM | 1 to 10 nM | COc1ncc(-c2ccc3ncc(C)c(=O)n3c2)cc1NS(=O)(=O)c1ccc(F)cc1F [compound 81, 2,4-difluoro-N-(2-methoxy-5-(3-methyl-4-oxo-4H-pyrido[1,2-a]pyrimidin-7-yl)pyridin-3-yl)benzsulfamide] | – | – | – | – | 90.1% | 85.5% |
| ≤ 1 nM | ≤ 50 nM | ≤ 50 nM | ≤ 1 nM | COc1ncc(-c2ccc3ncc(Cl)c(=O)n3c2)cc1NS(=O)(=O)c1ccc(Cl)s1 [compound 144] | – | – | – | – | 95.8% | 89.4% |
| 1 to 10 nM | ≤ 50 nM | ≤ 50 nM | 1 to 10 nM | COc1ncc(-c2ccc3ncc(Cl)c(=O)n3c2)cc1NS(=O)(=O)c1c(Cl)cccc1Cl [compound 149] | 92% | 80.7% | – | – | – | – |

The remaining lines, values behind:

| SMILES | IC50 (mTOR kinase) | IC50 (MCF-7 cells; read-out: IC50 p-AKT) | IC50 (MCF-7 cells; read-out: IC50 p-p70S6K) | IC50 (PI3K (p110α) kinase) | inhibition at 0.25 µM (MCF-7 cells; read-out: % inhibition AKT) | inhibition at 0.25 µM (MCF-7 cells; read-out: % inhibition p70s6k) | inhibition at 1 µM (MCF-7 cells; read-out: % inhibition AKT) | inhibition at 1 µM (MCF-7 cells; read-out: % inhibition p70s6k) | inhibition at 0.5 µM (MCF-7 cells; read-out: % inhibition AKT) | inhibition at 0.5 µM (MCF-7 cells; read-out: % inhibition p70s6k) |
| --- | --- | --- | --- | --- | --- | --- | --- | --- | --- | --- |
| COc1ncc(-c2ccc3nccc(=O)n3c2)cc1NS(=O)(=O)c1ccccc1Cl [compound 30] | 10 to 50 nM | ≤ 50 nM | 50 to 100 nM | ≤ 1 nM | – | – | 95% | 93.4% | – | – |
| COc1ncc(-c2ccc3nccc(=O)n3c2)cc1NS(=O)(=O)c1ccc(F)cc1Cl [compound 25] | 10 to 50 nM | ≤ 50 nM | 50 to 100 nM | 1 to 10 nM | – | – | 95.1% | 94.1% | – | – |
| COc1ncc(-c2ccc3nccc(=O)n3c2)cc1NS(=O)(=O)c1ccc(F)cc1C [compound 26] | 10 to 50 nM | ≤ 50 nM | 50 to 100 nM | 1 to 10 nM | – | – | 95.6% | 93.7% | – | – |
